# Measured values taken from patent publication US20250352539A1, “COMBINATION THERAPY FOR TREATING CANCER” (AstraZeneca AB, priority 2022, published 2025).
# Values joined by “and” are separate entries in the source; they are usually repeats but may differ in a detail not shown here. Equal values may be shown once.
# What was measured:
# Type in all cases: cell-based
# SJ-G2 IDHm = test: 7 days treatment combination assay in glioblastoma cell lines (Cell Titer Glow 2.0); conditions: 168 h, paediatric GBM
# Method: (§1) The assay was carried out in the following glioblastoma cell lines: • U87 • U87 R132H • T98G • SJ-G2 ctrl • SJ-G2 IDH using AZD6738 and AZD9574
# (§2) The cells were seeded the day before drug treatment in 150 μl per well of 96-well plate. For SJ-G2 cells, the plates were coated with poly-Lysine solution for 15 minutes, washed twice with sterile water and dried for 1 hour.
# (§3) The seeding numbers were (cells per well): U87-500; T98G-500; SJ-G2 ctrl-1000; SJ-G2 IDH.
# (§4) The compounds were added via a drug dispenser according to the following scheme:
# (§5) after 7 Days: • (a) for SJ-G2, 75 μl Cell Titer Glow 2.0 solution (Promega) was added and incubated for 15 minutes at 37° C. The cells were then read using a plate reader. • (b) for U87 and T98G, 75 μl of 37% formaldehyde was added and fixed for 20 minutes at room temperature. This was then washed twice with PBS, followed by Hoeschst staining for 1 hour at room temperature (Hoeschst 1:10000 in PBS). This was then washed twice in PBS and the plates sealed. The plates were then imaged on Cell Insight with 10× magnification at the 25 position. Hoeschst positive nuclei were identified as objects, and cell survival was analysed by counting objects (Hoeschst positive nuclei) with the corresponding settings for U87 or T98G.
# (§6) An analysis of drug synergy was then carried out to yield a HSA score
# SJ-G2 WT = test: as above; conditions: 168 h, paediatric GBM
# Method: as §1, §2, §3, §4, §5, §6
# HCC1187 = test: 10-day Cell Titre Glo combination screen; conditions: Homo sapiens; HCC1187 breast; monotherapy; read-out: mono AC50
# Method in brief: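 A 10-day combination assay with ATP-based luminescent viability readout, normalised to day-zero and vehicle wells. Synergy is expressed as HSA Volume and as combination index.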
# AGS = test: 144-hour CellTiter-Glo 2.0 proliferation assay; conditions: Homo sapiens; AGS gastric; monotherapy; read-out: mono GI50
# Method: (§7) Combination profiling was carried out in a panel of cancer cell lines utilising Horizon Discovery's High Throughput Screening platform.
# (§8) Cell lines that have been preserved in liquid nitrogen are thawed and expanded in growth media (see Table 1). Once cells have reached expected doubling times, screening begins. Cells are seeded in 25 μl of growth media in black 384-well tissue culture treated plates (seeding density as noted in Table 11).
# (§9) Cells are equilibrated in assay plates via centrifugation and placed at 37° C. 5% CO2 for twenty-four hours before treatment.
# (§10) Compounds are transferred to assay plates using and Echo acoustic liquid handling system. 25 nl of each compound was added at the appropriate concentration for all combination dose points. Therefore, final assay volume would be […]. Assay plates are incubated with compound for 6 days and are then analysed using CellTiter-Glo 2.0. All data points are collected via automated processes and are subject to quality control and analysed.
# (§11) Growth Inhibition (GI) is reported as a measure of cell growth. The GI percentages are calculated by applying the following test and equation: […]
# (§12) where T is the signal measure for a test article, V is the untreated/vehicle-treated control measure, and Vo is the untreated/vehicle control measure at time zero (also colloquially referred as T0 plates). This formula is derived from the Growth Inhibition calculation used in the National Cancer Institute's NCI-60 high throughput screen. For the purposes of this report, all data analysis was performed in Growth Inhibition (except where noted).
# Caov-3 = test: 144-hour CellTiter-Glo 2.0 proliferation assay; conditions: Homo sapiens; Caov-3 ovarian; monotherapy; read-out: mono GI50
# Method: as §7, §8, §9, §10, §11, §12
# PA-1 = test: 144-hour CellTiter-Glo 2.0 proliferation assay; conditions: Homo sapiens; PA-1 ovarian; monotherapy; read-out: mono GI50
# Method: as §7, §8, §9, §10, §11, §12
# HCT-116 = test: 144-hour CellTiter-Glo 2.0 proliferation assay; conditions: Homo sapiens; HCT-116 colorectal; monotherapy; read-out: mono GI50
# Method: as §7, §8, §9, §10, §11, §12
# IM-95 = test: 144-hour CellTiter-Glo 2.0 proliferation assay; conditions: Homo sapiens, IM95; IM-95 gastric; monotherapy; read-out: mono GI50
# Method: as §7, §8, §9, §10, §11, §12
# KP-3 = test: 144-hour CellTiter-Glo 2.0 proliferation assay; conditions: KP-3 pancreatic; monotherapy; read-out: mono GI50
# Method: as §7, §8, §9, §10, §11, §12
# JHOM-1 = test: 144-hour CellTiter-Glo 2.0 proliferation assay; conditions: JHOM-1 ovarian; monotherapy; read-out: mono GI50
# Method: as §7, §8, §9, §10, §11, §12
# HGC-27 = test: 144-hour CellTiter-Glo 2.0 proliferation assay; conditions: Homo sapiens; HGC-27 gastric; monotherapy; read-out: mono GI50
# Method: as §7, §8, §9, §10, §11, §12
# T98G = test: 7 days treatment combination assay in glioblastoma cell lines (Hoeschst positive nuclei count); conditions: Homo sapiens, 168 h, Adult GBM
# Method: as §1, §2, §3, §4, §5, §6
# U87 IDHm = test: as above; conditions: 168 h, Adult GBM
# Method: as §1, §2, §3, §4, §5, §6
# U87 IDH WT = test: as above; conditions: 168 h, Adult GBM
# Method: as §1, §2, §3, §4, §5, §6
compound,measurement,setting,value
"C[C@@H]1COCCN1c1cc(C2([S@](C)(=N)=O)CC2)nc(-c2ccnc3[nH]ccc23)n1 [AZD6738, 4-{4-[(3R)-3-Methylmorpholin-4-yl]-6-[1-((R)—S-methylsulfonimidoyl)cyclopropyl]pyrimidin-2-yl}-1H-pyrrolo[2,3-b]-pyridine]",IC50,SJ-G2 IDHm,308 nM
same,IC50,SJ-G2 WT,160 nM
same,AC50,HCC1187,531 nM
same,GI50,AGS,1210 nM
same,GI50,Caov-3,197 nM
same,GI50,PA-1,1220 nM
same,GI50,HCT-116,687 nM
same,GI50,IM-95,250 nM
same,GI50,KP-3,1280 nM and 1900 nM
same,GI50,JHOM-1,939 nM
same,GI50,HGC-27,1150 nM
same,IC50,T98G,213 nM
same,IC50,U87 IDHm,766 nM
same,IC50,U87 IDH WT,649 nM
